Data taken from patent EP4219453A1 (Sichuan Kelun-Biotech Biopharmaceutical Co., Ltd., priority 2020, dated 2022).
Values joined by “and” are separate entries in the source; they are usually repeats but may differ in a detail not shown here. Identical values can stand only once. Like-named read-outs stand apart in the source and are kept apart here.

Assays:
TGFβR1 = target: T1, TGFβR1 (Homo sapiens, UniProt P36897); experiment: In vitro enzymatic activity inhibition test (TGFβR1), ADP-Glo Kinase Detection Kit; type: biochemical; settings: calculated from percent inhibition at 1000 nM, 100 nM, 10 nM
T1 sequence (P36897 34-503): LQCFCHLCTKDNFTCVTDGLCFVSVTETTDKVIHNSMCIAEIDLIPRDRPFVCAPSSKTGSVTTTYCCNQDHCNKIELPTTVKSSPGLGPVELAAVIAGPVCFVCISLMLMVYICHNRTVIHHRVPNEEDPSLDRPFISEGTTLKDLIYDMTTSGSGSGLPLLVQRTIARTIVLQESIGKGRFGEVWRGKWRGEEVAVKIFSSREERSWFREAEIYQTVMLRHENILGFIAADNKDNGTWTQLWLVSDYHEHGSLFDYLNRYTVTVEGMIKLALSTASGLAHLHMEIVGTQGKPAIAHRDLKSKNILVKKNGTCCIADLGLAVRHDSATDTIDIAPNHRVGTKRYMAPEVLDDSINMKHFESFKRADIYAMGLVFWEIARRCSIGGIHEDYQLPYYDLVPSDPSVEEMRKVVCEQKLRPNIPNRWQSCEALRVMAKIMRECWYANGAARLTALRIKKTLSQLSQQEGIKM
Description: Test Example 1: In vitro enzymatic activity inhibition test (TGFβR1).
(§1) Experimental method: According to the instructions of ADP-Glo™ Kinase Detection Kit (Promega), the inhibitory effect of the compounds of the present invention on the enzymatic activity of TGFβR1 was determined, and the steps were as follows: TGFβR1 enzyme were pre-incubated with different concentrations of test compounds (1000 nM, 100 nM, 10 nM) at 30°C for 30 min, TGFβR1 peptide and adenosine triphosphate (ATP) were added to initiate the reaction. The incubation was performed at 30°C for 3 h, followed by an addition of ADP-Glo™ reagent and incubated at room temperature for 90 min, kinase detection reagent was then added. Chemiluminescence signal values were detected after incubation at room temperature for another 30 min.
(§2) When the percent inhibition rate was between 30% and 80%, the median inhibitory concentration (IC50) or range of the compound was calculated according to the following formula: IC50 = X × (1 - percent inhibition rate (%)) / percent inhibition rate (%), wherein X is the concentration of the compound at which the inhibition rate is between 30% and 80%.

[1] = tested on: TGFβ/Smads signaling pathway in HEK293-SBE cells; experiment: In vitro cell activity inhibition test, Bright-Glo luciferase reporter in HEK293-SBE cells; type: cell-based; settings: TGFβ 0.5 ng/ml, luciferase reporter gene method
Description: Test Example 3: In vitro cell activity inhibition test
Experimental method: According to the instructions of Bright-Glo™ luciferase detection kit (Promega), the inhibitory effect of the compounds of the present invention on TGFβ/Smads signaling pathway in HEK293-SBE cells was determined. The steps were as follows: HEK293-SBE cells (Bps bioscience) were added to a 96-well plate (10% FBS medium), 30,000/well, and cultured overnight at 37°C and 5% CO2. The medium was changed to 0.5% FBS medium, and the test compound diluted in 0.5% FBS medium was added. The highest final concentration of the test compound was 10 µM with 4-fold dilution, and a total of 8 concentration gradients. After 4-5 hours of incubation, 10 µl of TGFβ was added. The final concentration of TGFβ was 0.5 ng/ml. 10 µl of medium added in replace of TGFβ was the negative control. In the blank control, no test compound was added, and TGFβ was added. Bright Glo reagent was added to each well, and the chemiluminescence signal value was read on a microplate reader.
The percent inhibition rates of the test compound at different concentrations were plotted against the compound concentrations, the curve was fitted according to the four-parameter model, and the IC50 value was calculated by the following formula: y = Min + (Max - Min) / (1 + (x / IC50) ^ (-Hillslope)), wherein: y is percentage inhibition rate; Max and Min are the maximum and minimum values of the fitted curve, respectively; x is the logarithmic concentration of compound; and Hillslope is the slope of the curve.

[2] = Pharmacokinetics (PK) study in Balb/c mice; type: in vivo; settings: female Balb/c mice; for F: PO 10 mg/kg compared with IV 1 mg/kg
Description: Test Example 6: Pharmacokinetics (PK) study in Balb/c mice
The example compounds were administered to female Balb/c mice via intravenous injection (IV) and gastric perfusion (PO), respectively, and their pharmacokinetic properties were investigated. The administered doses for IV and PO were 1 mg/kg and 10 mg/kg, respectively. The solvent for IV was 5% DMSO + 5% Solutol (15-hydroxystearic acid polyethylene glycol ester) + 90% normal saline, the solvent for PO was 0.5% MC ([…] methylcellulose). Whole blood samples were collected at various time points after IV and PO administration, and subjected to EDTA-K2 anticoagulation before test.
Whole blood samples were processed by precipitating proteins and then subjected to LC-MS/MS analysis. The pharmacokinetic parameters were calculated by the non-compartmental model using WinNonlin 6.3 software, and the results were shown in Table 6 below. Table 6. Pharmacokinetic parameters of compounds in whole blood in mice

TGFβR2 = TGFβR2 (Homo sapiens, UniProt P37173); experiment: In vitro enzymatic activity inhibition test (TGFβR2), ADP-Glo Kinase Detection Kit; type: biochemical; settings: MBP substrate, calculated from percent inhibition at 1000nM, 100nM, 10nM
Description: Test Example 2: In vitro enzymatic activity inhibition test (TGFβR2).
as §1, with “TGFβR2” for “TGFβR1”, “(1000nM, 100nM, 10nM)” for “(1000 nM, 100 nM, 10 nM)”, “myelin basic protein (MBP)” for “TGFβR1 peptide”, “The chemiluminescence” for “Chemiluminescence”
as §2, with “percent inhibition was between” for “percent inhibition rate was between”

[3] = PO, 10 mg/kg, whole blood, listed as Example VI
[4] = mouse, IV, 1 mg/kg, whole blood
[5] = mouse, IV, 1 mg/kg, whole blood, read-out: Cmax
[6] = mouse, PO, 10 mg/kg, whole blood
[7] = mouse, PO, 10 mg/kg, whole blood, read-out: Cmax

Chain of TGFβR2 (P37173 23-567): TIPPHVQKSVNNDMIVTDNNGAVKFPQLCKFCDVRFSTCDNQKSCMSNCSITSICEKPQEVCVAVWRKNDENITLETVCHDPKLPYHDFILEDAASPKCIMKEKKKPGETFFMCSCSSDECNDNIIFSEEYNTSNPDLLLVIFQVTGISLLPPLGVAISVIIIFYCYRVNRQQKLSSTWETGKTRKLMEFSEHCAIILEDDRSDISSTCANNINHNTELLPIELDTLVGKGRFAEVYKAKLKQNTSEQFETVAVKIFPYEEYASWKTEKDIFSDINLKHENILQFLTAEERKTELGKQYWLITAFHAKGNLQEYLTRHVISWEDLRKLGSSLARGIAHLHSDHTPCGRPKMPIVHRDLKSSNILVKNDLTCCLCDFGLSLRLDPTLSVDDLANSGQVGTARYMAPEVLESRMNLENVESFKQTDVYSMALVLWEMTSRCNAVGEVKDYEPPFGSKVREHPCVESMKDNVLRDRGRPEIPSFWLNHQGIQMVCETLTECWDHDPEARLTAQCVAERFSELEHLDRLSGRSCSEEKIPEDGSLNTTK

F [2] | T1/2 ([2]; PO, 10 mg/kg, whole blood) [min] | IC50 (TGFβR2) [nM] | AUC(0-t) [2, 4] [ng·h/mL] | clearance [2, 4] [mL/min/kg] | Cmax [2, 5] [ng/mL] | AUC(0-t) [2, 6] [ng·h/mL] | half-life [2, 6] [min] | Cmax [2, 7] [ng/mL] | SMILES | IC50 (TGFβR1) [nM] | IC50 [1] [nM] | AUClast ([2]; IV, 1 mg/kg, whole blood) | Cl ([2]; IV, 1 mg/kg, whole blood) | Cmax ([2]; IV, 1 mg/kg, whole blood) | F ([2]; listed as Example VI) [%] | AUClast ([2]; PO, 10 mg/kg, whole blood) [ng·h/mL] | Cmax ([2]; PO, 10 mg/kg, whole blood) [ng/mL] | AUClast [2, 3] [ng·h/mL] | Cmax [2, 3] [ng/mL] | T1/2 [2, 3] [min]
98.1% and 98.1±15.0% | 108 ± 21 | > 1000 | 458 | 35 | 917 | 4360 | 108 | 6270 | CNc1cc(-c2ccn3ncc(C(N)=O)c3c2)n(-c2cccc(C)n2)n1 [Example 8, 5-(3-(methylamino)-1-(6-methylpyridin-2-yl)-1H-pyrazol-5-yl)pyrazolo[1,5-a]pyridine-3-carboxamide] | 8.27 ± 0.11 | 29.9 ± 1.27 |  |  |  |  |  |  |  |  | 
 |  | 593 ± 129 |  |  |  |  |  |  | Cc1cccc(-n2nc(NCc3ccc(F)cc3)cc2-c2ccn3ncc(C(N)=O)c3c2)n1 [Example 11, 5-(3-(4-fluorobenzylamino)-1-(6-methylpyridin-2-yl)-1H-pyrazol-5-yl)pyrazolo[1,5-a]pyridine-3-carboxamide] | 0.5 ± 0.21 | 19.4 ± 1.52 |  |  |  |  |  |  |  |  | 
52.1% and 52.1±2.6% | 31.2 ± 10.8 | > 1000 | 572 | 29.3 | 862 | 3040 | 31.2 | 5920 | Cc1cccc(-n2nccc2-c2ccn3ncc(C(N)=O)c3c2)n1 [Example 12, 5-(1-(6-methylpyridin-2-yl)-1H-pyrazol-5-yl)pyrazolo[1,5-a]pyridine-3-carboxamide] | 9.39 ± 2.15 | 26.6 ± 5.43 |  |  |  |  |  |  |  |  | 

Second part, the compound before the results:

SMILES | F [2] | T1/2 ([2]; PO, 10 mg/kg, whole blood) [min] | IC50 (TGFβR2) [nM] | AUC(0-t) [2, 4] [ng·h/mL] | clearance [2, 4] [mL/min/kg] | Cmax [2, 5] [ng/mL] | AUC(0-t) [2, 6] [ng·h/mL] | half-life [2, 6] [min] | Cmax [2, 7] [ng/mL] | IC50 (TGFβR1) [nM] | IC50 [1] [nM] | AUClast ([2]; IV, 1 mg/kg, whole blood) | Cl ([2]; IV, 1 mg/kg, whole blood) | Cmax ([2]; IV, 1 mg/kg, whole blood) | F ([2]; listed as Example VI) [%] | AUClast ([2]; PO, 10 mg/kg, whole blood) [ng·h/mL] | Cmax ([2]; PO, 10 mg/kg, whole blood) [ng/mL] | AUClast [2, 3] [ng·h/mL] | Cmax [2, 3] [ng/mL] | T1/2 [2, 3] [min]
Cc1cccc(-n2nc3c(c2-c2ccn4nccc4c2)CCC3)n1 [Example 4, 5-[2-(6-methylpyridin-2-yl)-2,4,5,6-tetrahydrocyclopenteno [c]pyrazol-3-yl]pyrazolo[1,5-a]pyridine] |  |  |  |  |  |  |  |  |  | 12 ± 5.4 | 35 ± 2.69 |  |  |  |  |  |  |  |  | 
Cc1cccc(-n2nc3c(c2-c2ccn4ncc(C(N)=O)c4c2)CCC3)n1 [Example 6, 5-[2-(6-methylpyridin-2-yl)-2,4,5,6-tetrahydrocyclopenteno[c]pyrazol-3-yl]pyrazolo[1,5-a]pyridine-3-carboxamide] | 61.4±9.5% | 27.6 ± 11.4 |  |  |  |  |  |  |  | 2.36 ± 0.68 | 20.1 ± 1 | 578 ng·h/mL and 578 ± 4 ng·h/mL | 28.4 mL/min/kg and 28.4 ± 0.3 mL/min/kg | 1163 ng/mL and 1163 ± 58 ng/mL | 61.4 | 3586 ± 563 | 7440 ± 226 | 3586 | 7440 | 27.6
Cc1cccc(-n2nc(NC(C)c3ccc(F)cc3)cc2-c2ccn3ncc(C(N)=O)c3c2)n1 (stereo not shown) [Example 10, 5-(3-(1-(4-fluorophenyl)ethylamino)-1-(6-methylpyridin-2-yl)-1H-pyrazol-5-yl)pyridino[1,5-a]pyridine-3-carboxamide] |  |  | > 1000 |  |  |  |  |  |  | 4.82 ± 0.51 | 43.1 ± 4.19 |  |  |  |  |  |  |  |  | 
